The target in this assay is T1, ALK (Homo sapiens, UniProt Q9UM73).
T1 construct: purchased Millipore
T1 sequence (Q9UM73 19-1620): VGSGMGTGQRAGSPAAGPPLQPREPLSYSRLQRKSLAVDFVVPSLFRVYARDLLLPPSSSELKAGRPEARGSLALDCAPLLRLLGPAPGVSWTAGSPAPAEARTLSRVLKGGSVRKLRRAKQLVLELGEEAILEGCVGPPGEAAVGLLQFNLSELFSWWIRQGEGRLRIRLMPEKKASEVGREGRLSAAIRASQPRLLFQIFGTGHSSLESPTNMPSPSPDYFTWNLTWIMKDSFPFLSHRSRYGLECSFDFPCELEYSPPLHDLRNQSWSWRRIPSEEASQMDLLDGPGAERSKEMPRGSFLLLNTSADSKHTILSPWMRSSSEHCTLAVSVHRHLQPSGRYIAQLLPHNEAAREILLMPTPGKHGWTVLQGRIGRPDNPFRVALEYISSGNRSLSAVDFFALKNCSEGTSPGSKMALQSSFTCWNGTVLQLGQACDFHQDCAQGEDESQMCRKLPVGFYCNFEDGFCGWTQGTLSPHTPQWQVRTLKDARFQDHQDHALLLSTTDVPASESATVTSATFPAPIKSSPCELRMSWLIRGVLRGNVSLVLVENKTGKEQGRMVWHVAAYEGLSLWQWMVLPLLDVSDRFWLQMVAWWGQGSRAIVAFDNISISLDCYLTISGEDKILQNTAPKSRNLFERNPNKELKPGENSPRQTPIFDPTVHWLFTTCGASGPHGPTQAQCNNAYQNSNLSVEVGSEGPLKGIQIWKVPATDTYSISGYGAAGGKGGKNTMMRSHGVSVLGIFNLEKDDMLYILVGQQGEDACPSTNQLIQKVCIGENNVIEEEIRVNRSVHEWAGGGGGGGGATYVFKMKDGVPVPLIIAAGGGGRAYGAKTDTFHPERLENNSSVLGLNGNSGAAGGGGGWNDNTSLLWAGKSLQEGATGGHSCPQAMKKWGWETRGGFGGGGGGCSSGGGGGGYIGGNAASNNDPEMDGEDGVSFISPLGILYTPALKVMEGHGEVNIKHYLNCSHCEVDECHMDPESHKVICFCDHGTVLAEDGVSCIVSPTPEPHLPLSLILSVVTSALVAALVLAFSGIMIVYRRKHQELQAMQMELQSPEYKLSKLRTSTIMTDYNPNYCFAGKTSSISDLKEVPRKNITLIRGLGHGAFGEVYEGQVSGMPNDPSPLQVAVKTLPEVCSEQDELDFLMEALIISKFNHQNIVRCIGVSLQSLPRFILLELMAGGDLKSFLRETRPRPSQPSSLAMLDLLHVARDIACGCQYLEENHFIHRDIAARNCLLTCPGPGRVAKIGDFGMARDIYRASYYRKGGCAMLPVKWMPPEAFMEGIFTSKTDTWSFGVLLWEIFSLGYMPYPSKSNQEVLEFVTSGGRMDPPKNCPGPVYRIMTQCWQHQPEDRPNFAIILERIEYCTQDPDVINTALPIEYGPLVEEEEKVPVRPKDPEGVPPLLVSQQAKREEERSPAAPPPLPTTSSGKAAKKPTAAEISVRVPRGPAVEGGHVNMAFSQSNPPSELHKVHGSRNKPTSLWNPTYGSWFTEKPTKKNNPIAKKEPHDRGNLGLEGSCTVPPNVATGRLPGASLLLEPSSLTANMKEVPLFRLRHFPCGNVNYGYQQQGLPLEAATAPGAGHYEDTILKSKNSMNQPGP
The experiment in a line: ALK kinase assay (HTRF), apparent Ki. The class given is biochemical. The settings on record: apparent Ki from IC50 by Cheng-Prusoff; ALK (Millipore), 50 μM ATP; read-out: HTRF_ALK Human-Ki. As to the method: The following procedure is used to determine ALK Activity.
ALK kinase assays were conducted with the indicated final concentrations unless otherwise specified. In 384 well black plates (Axygen), 8 μl of compound (2% DMSO) was incubated with 8 μl Lck-peptide substrate (0.5 μM, biotin-Ahx-GAEEEIYAAFFA-COOH) and 8 μl of a mixture of ALK (3 nM, Millipore) and ATP (50 μM) in reaction buffer (50 mM Hepes, pH 7.4; 10 mM MgCl2; 2 mM MnCl2; 0.1 mM sodium orthovanadate; 0.01% BSA and 1 mM DTT (added fresh before assay) for 1 h at room temperature. Reactions were then quenched by the addition of 30 μl quench solution (streptavidin-allophycocyanin and Europium-cryptate PT66 monoclonal antibody in 40 mM Hepes, pH 7.4; 480 mM KF; 66 mM EDTA; 0.01% Tween-20; and 0.1% BSA) at room temperature. Plates were read 1 h after quenching on an Envision Multilaber Reader and IC50 values were calculated using a sigmoidal fit of the concentration/inhibition response curves. These values were converted to apparent Ki values using the Cheng-Prusoff relationship.
Alternatively, 4 nM ALK (Millipore) and 50 μM ATP were pre-incubated for 30 min at room temperate in 384 well plates (Corning 3676) in 2.5× reaction buffer (125 nM SEB from Cisbio Bioassays, 12.5 mM MgCl2, 5 mM MnCl2, and 2.5 mM DTT). Reactions were initiated by the addition of 4 μl ALK-ATP mixture to 2 μl compounds (2% DMSO) and 4 μl TK-substrate biotin (Cisbio Bioassays). After incubation for 1 h at room temperature, reactions were quenched in 10 μl stop buffer (Cisbio detection buffer containing Streptavididn-XL665 and Eu-Cryptate PT66 monoclonal antibody). Plates were read 1 h after quenching on an Envision Multilaber Reader and IC50 values were calculated using a sigmoidal fit of the concentration/inhibition response curves. These values were converted to apparent Ki values using the Cheng-Prusoff relationship. Results are shown in Table 1 A correlates to an Ki=<100 nM, B correlates to an Ki between 100 nM and 1 μM, C correlates to an Ki=>1 μM.
(Time-resolved FRET reads energy transfer from a long-lived donor to a nearby acceptor.)
`COc1cc(N2CCNCC2)ccc1Nc1cc(Cc2c(Cl)cccc2Cl)cnc1C(N)=O` [Example 1, 5-(2,6-dichlorobenzyl)-3-{[2-methoxy-4-(piperazin-1-yl)phenyl]amino}pyridine-2-carboxamide]: the Ki was < 100 nM.

`COc1cc(N2CCNCC2)ccc1Nc1cc(C(C)c2c(Cl)cccc2Cl)cnc1C(N)=O` (stereo not drawn) [Example 2, 5-[1-(2,6-dichlorophenyl)ethyl]-3-{[2-methoxy-4-(piperazin-1-yl)phenyl]amino}pyridine-2-carboxamide]: the Ki was < 100 nM.

As to `CN1CCN(c2ccc(Nc3cc(Cc4ccccc4)cnc3C(N)=O)cc2)CC1` [Example 3, 5-benzyl-3-{[4-(4-methylpiperazin-1-yl)phenyl]amino}pyridine-2-carboxamide], the Ki lay in the range of 100 to 1000 nM.

In the case of `CN1CCN(c2cccc(Nc3cc(Cc4ccccc4)cnc3C(N)=O)c2)CC1` [Example 4, 5-benzyl-3-{[3-(4-methylpiperazin-1-yl)phenyl]amino}pyridine-2-carboxamide], the Ki lay within 100 to 1000 nM.

Regarding `CN1CCN(c2ccc(Nc3cc(CC4CCCCC4)cnc3C(N)=O)cc2)CC1` [Example 5, 5-(cyclohexylmethyl)-3-{[4-(4-methylpiperazin-1-yl)phenyl]amino}pyridine-2-carboxamide], the Ki was in the range of 100 to 1000 nM.

For the compound `CN1CCN(c2ccc(Nc3cc(-c4ccccc4)cnc3C(N)=O)cc2)CC1` [Example 6, 3-{[4-(4-methylpiperazin-1-yl)phenyl]amino}-5-phenylpyridine-2-carboxamide], the Ki lay in the range of 100 to 1000 nM.

For `CN1CCN(c2ccc(Nc3cc(Cc4ccccc4)cnc3C(N)=O)cc2Cl)CC1` [Example 7, 5-benzyl-3-{[3-chloro-4-(4-methylpiperazin-1-yl)phenyl]amino}pyridine-2-carboxamide], the Ki lay within 100 to 1000 nM.

Turning to `Cc1cc(Nc2cc(Cc3ccccc3)cnc2C(N)=O)ccc1N1CCN(C)CC1` [Example 8, 5-benzyl-3-{[3-methyl-4-(4-methylpiperazin-1-yl)phenyl]amino}pyridine-2-carboxamide], the Ki was > 1000 nM.

As for `Cc1cc(N2CCN(C)CC2)ccc1Nc1cc(Cc2ccccc2)cnc1C(N)=O` [Example 9, 5-benzyl-3-{[2-methyl-4-(4-methylpiperazin-1-yl)phenyl]amino}pyridine-2-carboxamide], the Ki lay within 100 to 1000 nM.

In the case of `C=C(c1ccccc1)c1cnc(C(N)=O)c(Nc2ccc(N3CCN(C)CC3)cc2)c1` [Example 10, 3-{[4-(4-methylpiperazin-1-yl)phenyl]amino}-5-(1-phenylvinyl)pyridine-2-carboxamide], the Ki is 100 to 1000 nM.

Regarding `CC(c1ccccc1)c1cnc(C(N)=O)c(Nc2ccc(N3CCN(C)CC3)cc2)c1` (stereo not drawn) [Example 11, 3-{[4-(4-methylpiperazin-1-yl)phenyl]amino}-5-(1-phenylethyl)pyridine-2-carboxamide], the Ki lay within 100 to 1000 nM.

For the compound `CN1CCN(c2ccc(Nc3cc(Cc4ccc(F)cc4)cnc3C(N)=O)cc2)CC1` [Example 12, 5-(4-fluorobenzyl)-3-{[4-(4-methylpiperazin-1-yl)phenyl]amino}pyridine-2-carboxamide], the Ki fell in the range of 100 to 1000 nM.

Take `CN1CCN(c2ccc(Nc3cc(Cc4ccccc4F)cnc3C(N)=O)cc2)CC1` [Example 13, 5-(2-fluorobenzyl)-3-{[4-(4-methylpiperazin-1-yl)phenyl]amino}pyridine-2-carboxamide]: the Ki was < 100 nM.

Regarding `CN1CCN(c2ccc(Nc3cc(Cc4cccc(F)c4)cnc3C(N)=O)cc2)CC1` [Example 14, 5-(3-fluorobenzyl)-3-{[4-(4-methylpiperazin-1-yl)phenyl]amino}pyridine-2-carboxamide], the Ki was < 100 nM.

In the case of `CN1CCN(c2ccc(Nc3cc(Cc4c(F)cccc4F)cnc3C(N)=O)cc2)CC1` [Example 15, 5-(2,6-difluorobenzyl)-3-{[4-(4-methylpiperazin-1-yl)phenyl]amino}pyridine-2-carboxamide], the Ki is < 100 nM.

(Values after patent US8859546B2, “Picolinamide inhibitors of kinases” (AbbVie Inc., priority 2011, dated 2014).)
